Measurements from patent US20240343717A1, “MICROBIOCIDAL PYRAZOLE DERIVATIVES” (SYNGENTA CROP PROTECTION AG, priority 2021, published 2024).

How the values were obtained:
[1] = test system: Alternaria solani; assay: Alternaria solani / tomato / leaf disc (early blight); type: in vivo; settings: foliar, tomato leaf disks, sprayed 2 days before inoculation, compared to untreated control
Method: Example B1: Alternaria solani/Tomato/Leaf Disc (Early Blight) Tomato leaf disks cv. Baby are placed on agar in multiwell plates (24-well format) and sprayed with the formulated test compound diluted in water. The leaf disks are inoculated with a spore suspension of the fungus 2 days after application. The inoculated leaf disks are incubated at 23° C./21° C.

[2] = test system: Glomerella lagenarium (Colletotrichum lagenarium); assay: Glomerella lagenarium (Colletotrichum lagenarium) / liquid culture (anthracnose); type: cell-based; settings: Colletotrichum orbiculare, growth inhibition photometrically 3-4 days after application, read-out: control of Glomerella lagenarium
Method: Example B3: Glomerella lagenarium (Colletotrichum lagenarium)/Liquid Culture (Anthracnose) Conidia of the fungus from cryogenic storage are directly mixed into nutrient broth (PDB potato dextrose broth). After placing a (DMSO) solution of test compound into a microtiter plate (96-well format), the nutrient broth containing the fungal spores is added. The test plates are incubated at 24° C. and the inhibition of growth is measured photometrically 3-4 days after application.

[3] = test system: Phaeosphaeria nodorum (Septoria nodorum); assay: Phaeosphaeria nodorum (Septoria nodorum) / wheat / leaf disc preventative (glume blotch); type: in vivo; settings: Parastagonospora nodorum, foliar, wheat leaf segments, inoculated 2 days after application
Method: Example B8: Phaeosphaeria nodorum (Septoria nodorum)/Wheat/Leaf Disc Preventative (Glume Blotch) Wheat leaf segments cv. Kanzler are placed on agar in a multiwell plate (24-well format) and sprayed with the formulated test compound diluted in water. The leaf disks are inoculated with a spore suspension of the fungus 2 days after application. The inoculated test leaf disks are incubated at 20° C. and 75% rh under a light regime of 12 h light/12 h darkness in a climate cabinet and the activity of a compound is assessed as percent disease control compared to untreated when an appropriate level of disease damage appears in untreated check leaf disks (5-7 days after application).

[4] = test system: Monographella nivalis (Microdochium nivale); assay: Monographella nivalis (Microdochium nivale) / liquid culture (foot rot cereals); type: cell-based; settings: growth inhibition photometrically 4-5 days after application, read-out: control of Monographella nivalis
Method: Example B9: Monographella nivalis (Microdochium nivale)/Liquid Culture (Foot Rot Cereals) Conidia of the fungus from cryogenic storage are directly mixed into nutrient broth (PDB potato dextrose broth). After placing a (DMSO) solution of test compound into a microtiter plate (96-well format), the nutrient broth containing the fungal spores is added. The test plates are incubated at 24° C. and the inhibition of growth is determined photometrically 4-5 days after application.

[5] = test system: Mycosphaerella arachidis (Cercospora arachidicola); assay: Mycosphaerella arachidis (Cercospora arachidicola) / liquid culture (early leaf spot); type: cell-based; settings: growth inhibition photometrically 4-5 days after application, read-out: control of Mycosphaerella arachidis
Method: Example B10: Mycosphaerella arachidis (Cercospora arachidicola)/Liquid Culture (Early Leaf Spot) Conidia of the fungus from cryogenic storage are directly mixed into nutrient broth (PDB potato dextrose broth). After placing a (DMSO) solution of test compound into a microtiter plate (96-well format), the nutrient broth containing the fungal spores is added. The test plates are incubated at 24° C. and the inhibition of growth is determined photometrically 4-5 days after application.

[6] = test system: Pyrenophora teres; assay: Pyrenophora teres / barley / leaf disc preventative (net blotch); type: in vivo; settings: foliar, barley leaf segments, inoculated 2 days after application
Method: Example B14: Pyrenophora teres/Barley/Leaf Disc Preventative (Net Blotch) Barley leaf segments cv. Hasso are placed on agar in a multiwell plate (24-well format) and sprayed with the formulated test compound diluted in water. The leaf segments are inoculated with a spore suspension of the fungus 2 days after application. The inoculated leaf segments are incubated at 20° C. and 65% rh under a light regime of 12 h light/12 h darkness in a climate cabinet and the activity of a compound is assessed as disease control compared to untreated when an appropriate level of disease damage appears in untreated check leaf segments (5-7 days after application).

[7] = test system: Mycosphaerella graminicola (Septoria tritici); assay: Mycosphaerella graminicola (Septoria tritici) / liquid culture (Septoria blotch); type: cell-based; settings: Zymoseptoria tritici, growth inhibition photometrically 4-5 days after application, read-out: control of Mycosphaerella graminicola
Method: Example B16: Mycosphaerella graminicola (Septoria tritici)/Liquid Culture (Septoria Blotch) Conidia of the fungus from cryogenic storage are directly mixed into nutrient broth (PDB potato dextrose broth). After placing a (DMSO) solution of test compound into a microtiter plate (96-well format), the nutrient broth containing the fungal spores is added. The test plates are incubated at 24° C. and the inhibition of growth is determined photometrically 4-5 days after application.

[8] = test system: Blumeria graminis f. sp. tritici (Erysiphe graminis f. sp. tritici); assay: Blumeria graminis f. sp. tritici / wheat / leaf disc preventative (powdery mildew on wheat); type: in vivo; settings: foliar, wheat leaf segments, inoculated 1 day after application
Method: Example B4: Blumeria graminis f. Sp. Tritici (Erysiphe graminis f. Sp. Tritici)/Wheat/Leaf Disc Preventative (Powdery Mildew on Wheat) Wheat leaf segments cv. Kanzler are placed on agar in a multiwell plate (24-well format) and sprayed with the formulated test compound diluted in water. The leaf disks are inoculated by shaking powdery mildew infected plants above the test plates 1 day after application. The inoculated leaf disks are incubated at 20° C. and 60% rh under a light regime of 24 h darkness followed by 12 h light/12 h darkness in a climate chamber and the activity of a compound is assessed as percent disease control compared to untreated when an appropriate level of disease damage appears on untreated check leaf segments (6-8 days after application).

[9] = test system: Botryotinia fuckeliana (Botrytis cinerea); assay: Botryotinia fuckeliana (Botrytis cinerea) / liquid culture (gray mould); type: cell-based; settings: growth inhibition photometrically 3-4 days after application, read-out: control of Botryotinia fuckeliana
Method: Example B2: Botryotinia fuckeliana (Botrytis cinerea)/Liquid Culture (Gray Mould) Conidia of the fungus from cryogenic storage are directly mixed into nutrient broth (Vogels broth). After placing a (DMSO) solution of test compound into a microtiter plate (96-well format), the nutrient broth containing the fungal spores is added. The test plates are incubated at 24° C. and the inhibition of growth is determined photometrically 3-4 days after application.

[10] = test system: Fusarium culmorum; assay: microbe, parasite or virus in culture; type: cell-based; settings: read-out: control of Fusarium culmorum

CO/N=C(/C)c1ccc(C(C)(CNC(=O)c2cc(-c3ccc(F)cc3F)on2)c2cnn(C)c2)nc1 (stereo not shown) [Compound P-61, 5-(2,4-difluorophenyl)-N-[2-[5-[(Z)-N-methoxy-C-methyl-carbonimidoyl]-2-pyridyl]-2-(1-methylpyrazol-4-yl)propyl]isoxazole-3-carboxamide]
≥ 80%: pest or weed control at 200 ppm [1] | inhibition of growth at 20 ppm [2] | pest or weed control at 200 ppm [3] | inhibition of growth at 20 ppm [4] | inhibition of growth at 20 ppm [5] | pest or weed control at 200 ppm [6] | inhibition of growth at 20 ppm [7]

CC(=O)Nc1ccc(C(C)(CNC(=O)c2cc(-c3ccc(F)cc3F)on2)c2cnn(C)c2)nc1 (stereo not shown) [Compound P-59, N-[2-(5-acetamido-2-pyridyl)-2-(1-methylpyrazol-4-yl)propyl]-5-(2,4-difluorophenyl) isoxazole-3-carboxamide]
≥ 80%: pest or weed control at 200 ppm [8]

CC(=O)c1cccc(C(C)(CNC(=O)c2cc(-c3ccc(F)cc3F)on2)c2cnn(C)c2)n1 (stereo not shown) [Compound P-48, N-[2-(6-acetyl-2-pyridyl)-2-(1-methylpyrazol-4-yl)propyl]-5-(2,4-difluorophenyl) isoxazole-3-carboxamide]
≥ 80%: pest or weed control at 200 ppm [1] | inhibition of growth at 20 ppm [9] | inhibition of growth at 20 ppm [2] | pest or weed control at 200 ppm [3] | inhibition of growth at 20 ppm [4] | inhibition of growth at 20 ppm [5] | pest or weed control at 200 ppm [6] | inhibition of growth at 20 ppm [7]

CN(C)C(=O)c1cccc(C(C)(CNC(=O)c2cc(-c3ccc(F)cc3F)on2)c2cnn(C)c2)n1 (stereo not shown) [Compound P-44, 5-(2,4-difluorophenyl)-N-[2-[6-(dimethylcarbamoyl)-2-pyridyl]-2-(1-methylpyrazol-4-yl)propyl]isoxazole-3-carboxamide]
≥ 80%: pest or weed control at 200 ppm [1] | pest or weed control at 200 ppm [3] | pest or weed control at 200 ppm [6]

Cn1cc(C(C)(CNC(=O)c2cc(-c3ccc(F)cc3F)on2)c2ccnc(Cl)n2)cn1 (stereo not shown) [Compound P-64, N-[2-(2-chloropyrimidin-4-yl)-2-(1-methylpyrazol-4-yl)propyl]-5-(2,4-difluorophenyl) isoxazole-3-carboxamide]
≥ 80%: pest or weed control at 200 ppm [1] | inhibition of growth at 20 ppm [9] | inhibition of growth at 20 ppm [2] | pest or weed control at 200 ppm [8] | pest or weed control at 200 ppm [3] | inhibition of growth at 20 ppm [4] | pest or weed control at 200 ppm [6] | inhibition of growth at 20 ppm [7]

CC(C)C(CNC(=O)c1cc(-c2ccc(F)cc2F)on1)(c1cnn(C)c1)c1cccc(Cl)n1 (stereo not shown) [Compound P-32, N-[2-(6-chloro-2-pyridyl)-3-methyl-2-(1-methylpyrazol-4-yl)butyl]-5-(2,4-difluorophenyl) isoxazole-3-carboxamide]
≥ 80%: pest or weed control at 200 ppm [1] | inhibition of growth at 20 ppm [9] | pest or weed control at 200 ppm [3] | inhibition of growth at 20 ppm [4] | pest or weed control at 200 ppm [6] | inhibition of growth at 20 ppm [7]

Cn1cc(C(C)(CNC(=O)c2cc(-c3ccc(F)cc3F)no2)c2cccc(Cl)n2)cn1 (stereo not shown) [Compound P-4, N-[2-(6-chloro-2-pyridyl)-2-(1-methylpyrazol-4-yl)propyl]-3-(2,4-difluorophenyl)isoxazole-5-carboxamide]
≥ 80%: pest or weed control at 200 ppm [1] | inhibition of growth at 20 ppm [2] | pest or weed control at 200 ppm [8]

Cn1cc(C(C)(CNC(=O)c2cc(-c3ccc(F)cc3F)on2)c2ccc(C#N)cn2)cn1 (stereo not shown) [Compound P-75, N-[2-(5-cyano-2-pyridyl)-2-(1-methylpyrazol-4-yl)propyl]-5-(2,4-difluorophenyl) isoxazole-3-carboxamide]
≥ 80%: pest or weed control at 200 ppm [1] | inhibition of growth at 20 ppm [4] | pest or weed control at 200 ppm [6] | inhibition of growth at 20 ppm [7]

CCCCc1nnc(C(=O)NCC(C)(c2cnn(C)c2)c2cccc(Cl)n2)s1 (stereo not shown) [Compound P-108, 5-butyl-N-[2-(6-chloro-2-pyridyl)-2-(1-methylpyrazol-4-yl)propyl]-1,3,4-thiadiazole-2-carboxamide]
≥ 80%: inhibition of growth at 20 ppm [9] | inhibition of growth at 20 ppm [2] | inhibition of growth at 20 ppm [10] | inhibition of growth at 20 ppm [4] | inhibition of growth at 20 ppm [5] | inhibition of growth at 20 ppm [7]

Cn1cc(C(C)(CNC(=O)c2nnc(-c3ccc(F)cc3F)s2)c2ccccn2)cn1 (stereo not shown) [Compound P-6, 5-(2,4-difluorophenyl)-N-[2-(1-methylpyrazol-4-yl)-2-(2-pyridyl)propyl]-1,3,4-thiadiazole-2-carboxamide]
≥ 80%: pest or weed control at 200 ppm [1] | inhibition of growth at 20 ppm [9] | inhibition of growth at 20 ppm [2] | pest or weed control at 200 ppm [8] | pest or weed control at 200 ppm [3] | inhibition of growth at 20 ppm [4] | pest or weed control at 200 ppm [6] | inhibition of growth at 20 ppm [7]

Cn1cc(C(C)(CNC(=O)c2cc(-c3ccc(F)cc3F)on2)c2cncc(Cl)n2)cn1 (stereo not shown) [Compound P-21, N-[2-(6-chloropyrazin-2-yl)-2-(1-methylpyrazol-4-yl)propyl]-5-(2,4-difluorophenyl) isoxazole-3-carboxamide]
≥ 80%: inhibition of growth at 20 ppm [9] | pest or weed control at 200 ppm [8] | pest or weed control at 200 ppm [6] | inhibition of growth at 20 ppm [7]
